Here are results for 17 compounds from publication PMC8224453, “A New PqsR Inverse Agonist Potentiates Tobramycin Efficacy to Eradicate Pseudomonas aeruginosa Biofilms” (Advanced Science, 2021).

Data set [1] has as its system pyocyanin production in PA14 wt. Kind of data set: Pyocyanin assay in PA14 wt. It is filed as cell-based. Conditions: Pseudomonas aeruginosa, PA14, read-out: IC50 pyocyanin. As to the method:
The pyocyanin inhibitory effect of the synthesized compounds and the compound (4) loaded SqNPs on PA14 wt were investigated by pyocyanin assay as described in previous work.[2,5] Briefly, PA14 wt was grown in PPGAS medium, overnight, at 37 °C, shaking at 200 rpm. The bacterial suspension was then centrifuged at 7.450 g, washed twice and diluted to a final OD600 (absorption at 600 nm) of 0.02 (2∙10^7 CFU/mL) in fresh PPGAS. 1.5 mL of the […]
(1 picture or pasted object on this page, not shown here) […]
culture was distributed in each well of the 24 well-plate. The free synthesized QSI prepared in DMSO, compound (4) loaded SqNPs were supplemented to bacteria-containing wells (1:100 dilutions). PA14 wt treated with either PBS or drug-free SqNPs (200 μg/mL) served as controls. Following 16 h incubation under aerobic conditions, pyocyanin in 900 μL of bacteria culture was extracted with chloroform and re-extracted with 0.2 M HCl. Pyocyanin production level was measured as the absorption at 520 nm, which was normalized to cell growth measured as OD600. 0.2 M HCl served as blank samples. Three independent experiments were conducted in triplicate. Non-linear regression analysis was performed using […]
(4) loaded SqNPs on PA14 wt. The pyocyanin inhibitory efficacy was improved by a factor of […]
It is noted that as reported in our prior
Figure S2. The production of pyocyanin levels compared to control PA14 wide type (wt) of the samples treated with 200 μg/mL drug free SqNPs. Three independent experiments were conducted in triplicate. […]
(also on this page, place not known: ( 4) -containing -free bacteria re -extracted compo und ( 4) (IC 50 nM ) (IC 50 nM ). drug P A14 5,6,7,8 -tetradeutero-2-heptyl-4(1H)-quinolone standa rd -40 -20 0 20 40 60 80 100 120 0.005 0.05 0.5 pyo production inhibition [%] Compound concentration loaded SqNPs [µM] IC50 = 100 ± 0.018 [nM])

The target of data set [2] is T1, PqsR (Pseudomonas aeruginosa, UniProt Q9I4X0).
T1 construct: which expresses PqsR and the β-galactosidase LacZ under the control of the pqsA promoter; expressed in transfected cells; host or cells: E. coli DH5α carrying plasmid pEAL08-2
Kind of data set: PqsR β-galactosidase reporter-gene assay in E. coli DH5α. It is filed as cell-based. Conditions: for IC50 PqsR: E. coli reporter-gene assay, result in words. The procedure:
3. Primary Activity Assays
The inverse agonistic/antagonistic activity of potential PqsR ligands was evaluated in a β-galactosidase reporter gene assay in E. coli as previously described.[3] In short, test compounds were co-incubated with E. coli DH5α cells containing the plasmid pEAL08-2,[4] which expresses PqsR and the β-galactosidase LacZ under the control of the pqsA promoter.
The inverse agonistic/antagonistic activity of compounds was measured in the presence of 50 nM PQS. After incubation, galactosidase activity was quantified photometrically and expressed as ratio of controls. The given IC50 values represent the mean of at least two independent experiments using at least eight different concentrations of test compound with n = 4. Non-linear regression analysis was performed using OriginPro 2020. […]

Data set [3] addresses T1, PqsR. The settings on record: read-out: IC50 (PqsR); Figure 1B, earlier hits; cited from earlier work.
The nature of data set [4]: Kinetic turbidimetric solubility assay. It is filed as physicochemical. The settings on record: PBS, aqueous buffer, kinetic from dmso stock, read-out: Kinetic solubility S kin. As to the method:
5.4. Kinetic Turbidimetric Solubility Assay
The desired compounds were sequentially diluted in DMSO in a 96-well plate. A 3 µL of each well were transferred into another three 96-well plates, followed by addition of 147 µL of PBS. Plates were shaken for 5 min at 600 rpm at room temperature (r.t.), and the absorbance at 620 nm was measured. Absorbance values were normalized by blank […]
subtraction and plotted using GraphPad Prism 8.4.2 (GraphPad Software, San Diego, CA, […]

Data set [5] can be described thus: Metabolic stability half-life (matrix not given). It is filed as in vitro ADME. Conditions: matrix not stated; read-out: metabolic stability half-life t 1/2. The procedure:
First, we evaluated the most promising compounds considering in vitro pharmacokinetic properties such as solubility and metabolic stability. […] Compounds 4 and 19 were moderately stable with half‐lives of 10 and 19 min, respectively.

pIC50: −log10 of the molar value. Converted amounts (≈) assume the structure as drawn. Like-named read-outs stand apart in the source and are kept apart here. Some results are limits rather than exact numbers.

T1 sequence (Q9I4X0 whole entry): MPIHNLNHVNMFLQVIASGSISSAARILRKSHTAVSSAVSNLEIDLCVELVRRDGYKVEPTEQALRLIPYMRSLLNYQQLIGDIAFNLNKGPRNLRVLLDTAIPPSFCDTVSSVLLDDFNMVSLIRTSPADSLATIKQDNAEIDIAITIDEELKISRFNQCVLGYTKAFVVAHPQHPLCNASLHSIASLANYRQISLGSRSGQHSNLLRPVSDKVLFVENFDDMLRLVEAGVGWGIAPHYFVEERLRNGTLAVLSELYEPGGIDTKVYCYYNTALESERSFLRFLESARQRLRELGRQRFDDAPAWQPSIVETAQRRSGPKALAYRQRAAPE

Broadly, the pIC50 is −log10 of the IC50, conventionally taken in molar units. On to `FC(F)(F)Oc1ccc(-n2cc(CNc3ccnc(C(F)(F)F)c3)nn2)cc1` [Compound 12], for which the pIC50 in data set [1] is 5.93; at PqsR [2] it was 7.52.
Consider `Oc1ccc(-n2cc(CNc3ccnc(C(F)(F)F)c3)nn2)cc1` [Compound 10], for which the “IC50 PqsR” value against PqsR [2] was “inactive ^a)”.
In the case of `Nc1cccc(C(F)(F)F)n1` [Compound 1], the negative-log IC50 (pIC50) at PqsR [3] is 4.48.
Turning to `Fc1ccc(-n2cc(CNc3ccnc(C(F)(F)F)c3)nn2)cc1` [Compound 3], the pIC50 in data set [1] is under 5.30; at PqsR [2] it was 6.71.
Consider `COc1ccc(-n2cc(CNc3ccnc(C(F)(F)F)c3)nn2)cc1` [Compound 11], for which the pIC50 in data set [1] was 5.60; against PqsR [2], 7.09.
As for `FC(F)(F)c1cc(NCc2cn(-c3ccc(Cl)cc3)nn2)ccn1` [Compound 9], the values for the negative logarithm of the IC50 (pIC50) (in data set [1]; at PqsR [2]) were 5.11 and 7.10, respectively.
As a reminder, the kinetic solubility is solubility judged after dilution from a stock solution rather than from solid. As to `Nc1cc(NCc2cn(-c3ccc(Oc4ccccc4)cc3)nn2)cc(C(F)(F)F)n1` [Compound 20], the solubility (kinetic) at 5 min in data set [4] stood at 13 µM (≈ 5.54 µg/mL). The pIC50 in data set [1] is 6.45.
`FC(F)(F)c1cc(NCc2cn(-c3ccc(Oc4ccccc4)c(Cl)c3)nn2)ccn1` [Compound 19]: the half-life in data set [5] was found to be 19 min. Besides, the figures for the negative-log IC50 (pIC50) (in data set [1]; against PqsR [2]) were 6.74 and 7.92, respectively.
Turning to `FC(F)(F)c1cc(NCc2cn(-c3ccccc3Cl)nn2)ccn1` [Compound 7], the pIC50 in data set [1] was under 5.30. For the same compound, on PqsR [2], the “IC50 PqsR” value was “inactive”.
As for `Fc1ccccc1-n1cc(CNc2ccnc(C(F)(F)F)c2)nn1` [Compound 6], in data set [1], the pIC50 was under 5.00. For the same compound, the “IC50 PqsR” value against PqsR [2] was “inactive”.
Turning to `FC(F)(F)Oc1ccc(-n2cc(CNc3ccnc(C(F)(F)F)c3)nn2)cc1Cl` [Compound 18], the half-life in data set [5] was determined as 55 min. Moreover, the kinetic solubility at 5 min in data set [4] is 31.3 µM (≈ 13.7 µg/mL). Besides, the figures for the pIC50 (in data set [1]; against PqsR [2]) were 6.36 and 7.82, respectively.
Consider `FC(F)(F)c1ccc(-n2cc(CNc3ccnc(C(F)(F)F)c3)nn2)cc1` [Compound 13], for which the negative logarithm of the IC50 (pIC50) in data set [1] was under 5.30; against PqsR [2], 6.89.
For the compound `Fc1cccc(-n2cc(CNc3ccnc(C(F)(F)F)c3)nn2)c1` [Compound 5], in data set [1], the pIC50 was under 5.30. For the same compound, the “IC50 PqsR” value against PqsR [2] was “inactive”.
For `FC(F)(F)c1cc(NCc2cn(-c3ccc(Nc4ccccc4)cc3)nn2)ccn1` [Compound 15], the negative-log IC50 (pIC50) in data set [1] was 5.97; against PqsR [2], 7.51.
For the compound `FC(F)(F)c1cc(NCc2cn(-c3cccc(Cl)c3)nn2)ccn1` [Compound 8], the negative logarithm of the IC50 (pIC50) is under 5.60 in data set [1] and 6.91 on PqsR [2].
On the same counts, the results for `N#Cc1ccc(-n2cc(CNc3ccnc(C(F)(F)F)c3)nn2)cc1` [Compound 14] are under 5.00 and 6.18.
For `FC(F)(F)c1cc(NCc2cn(-c3ccc(Cl)c(Cl)c3)nn2)ccn1` [Compound 16], the negative-log IC50 (pIC50) in data set [1] is 6.45; against PqsR [2] it was 7.62.
